Entries after “also recorded” stand apart in the source; their conditions may differ.
How the values were obtained:
rats = assay: Overall behavior and reactivities in rats; format: in vivo; details: i.p.
Protocol: (§1) The results of toxicological and neuropsychopharmacological tests which were carried out with the products according to the invention have been summarized below. In these tests, solutions of the said products in distilled water were administered intraperitoneally in a volume of 20 ml/kg to male mice and in a volume of 5 ml/kg to male rats.
(§2) Groups of 3 animals are observed before and then 0.25 h, 0.50 h, 1 h, 2 h, 3 h and 24 h after the administration of CRL 41 378. The following observations are made:
(§3) Groups of 3 animals are observed before and then 0.25 h, 0.50 h, 1 h, 2 h, 3 h and 24 h after the administration of CRL 41 329.

mice [1] = assay: Behavioral despair (forced immersion); format: in vivo; details: mice which have been forcibly immersed, i.p.
Protocol: as §1
Half an hour after they have received CRL 41 378, groups of 6 mice are placed in a beaker filled with water to a height of 6 cm. The total period of immobility between the 2nd and 6th minutes following immersion is noted.

[2] = system: hypothermia, righting behavior and stereotypies induced by apomorphine; assay: Interaction with apomorphine in mice; format: in vivo; details: i.p.
Protocol: as §1
CRL 41 378 is administered to groups of 6 mice 30 minutes before the subcutaneous injection of 1 or 16 mg/kg of apomorphine.

[3] = system: hypothermia, trembling and peripheral cholinergic symptoms induced by oxotremorine; assay: Interaction with oxotremorine; format: in vivo; details: mice, i.p.; oxotremorine 0.5 mg/kg
Protocol: as §1
CRL 41 378 is administered to groups of 6 mice 0.5 h before the intraperitoneal injection of 0.5 mg/kg of oxotremorine.

[4] = system: hypothermia and ptosis induced by reserpine; assay: Interaction with reserpine; format: in vivo; details: mice, i.p.; reserpine 2.5 mg/kg
Protocol: as §1
Four hours after the intraperitoneal injection of 2.5 mg/kg of reserpine, groups of 12 mice receive CRL 41 378.

mice [5] = assay: Motility reduced by habituation to the enclosure; format: in vivo; details: i.p.
Protocol: as §1
After they have stayed in the actimeters for 18 hours, the mice (6 per dose, 12 control animals) receive CRL 41 378. They are immediately returned to their respective enclosures and, half an hour later, their motility is recorded for 30 minutes.

mice [6] = assay: Motility reduced by hypoxic aggression (acute hypobaric anoxia); format: in vivo; details: i.p.
Protocol: In these tests, solutions of the said products in distilled water were administered intraperitoneally in a volume of 20 ml/kg to male mice and in a volume of 5 ml/kg to male rats.

male mice = assay: Acute toxicity, intraperitoneal (LD0, LD30, LD60, LD100); format: in vivo
Protocol: as §1

mice [7] = assay: Electric shock; format: in vivo; details: i.p.
Protocol: as §1
The test is performed on groups of 10 mice 30 minutes after the administration of CRL 41 378.

mice [8] = assay: Intergroup aggressiveness; format: in vivo; details: mice, i.p.
Protocol: as §1
After they have stayed for 3 weeks in the two halves of a cage divided by an opaque partition, groups of 3 mice receive CRL 41 378. Half an hour later, the two groups from the same cage are brought together by removal of the partition and the number of fights which occur in 10 minutes is noted.

mice [9] = assay: Spontaneous motility (actimeter); format: in vivo; details: i.p.
Protocol: as §1
0.5 h after they have received CRL 41 378, the mice (6 per dose, 12 control animals) are placed in an actimeter, where their motility is recorded for 30 minutes.

mice [10] = assay: Overall behavior and reactivities in mice; format: in vivo; details: i.p.
Protocol: as §1, §2, §3

[11] = system: central nervous system (CNS); assay: Neuropsychopharmacological profile (conclusions of the tests); format: in vivo, mice and rats; details: for overall neuropsychopharmacological profile: summary
Protocol: as §1

[12] = system: trembling and head twitches induced by 5-hydroxytryptophan (5-HTP); assay: Interaction with 5-hydroxytryptophan in association with an MAOI (nialamide); format: in vivo, male mice; details: for trembling: reference β-adrenergic stimulants; for all the effects of 5-HTP: reference substances, in the presence of an MAOI
Protocol: The purpose of the procedure used is to investigate the activity of each product according to the invention as regards the trembling induced by 5-hydroxytryptophan (5-HTP) in association with an MAOI (in this case nialamide).
Each test product, in solution in distilled water, is administered intraperitoneally in a volume of 20 ml/kg to male mice.
Groups of 10 mice receive nialamide (20 mg/kg, administered gastrically) at time T-18 h, each test product at time T-0.5 h and then (±)-5-HTP (20 mg/kg, administered intraperitoneally) at time T. Immediately after the injection of the (±)-5-HTP, the mice are individually placed in transparent plastic boxes. The generalized trembling, the partial trembling and the head twitches are noted on a yes/no basis for 2 h.

[13] = system: depressions and depressive states; assay: Clinical trials in depression and depressive states; format: in vivo, human
Protocol: The clinical trials which have been undertaken have made it possible to determine that the daily dose to be administered orally to adults, in the treatment of depressions and depressive states, is generally between 3 and 120 mg for the products of the formulae Ia and Ib according to the invention.

pregnant rabbits = assay: Teratogenic effects on pregnant rabbits; format: in vivo
[14] = system: hypothermia induced by apomorphine; assay: Interaction with apomorphine by gastric administration; format: in vivo; details: Mus musculus, male mice, apomorphine 16 mg/kg s.c., read-out: dose as from which the hypothermia induced by apomorphine is opposed
Protocol: Each test product is administered gastrically to male mice, in a volume of 20 ml/kg, 0.50 h before the subcutaneous injection of 16 mg/kg of apomorphine.

[15] = i.p., nialamide + (±)-5-HTP, male mice

CN1C=NCC(c2ccccc2)C1.Cl (stereo not drawn) [CRL 41 337, 1-methyl-5-phenyl-1,4,5,6-tetrahydropyrimidine hydrochloride]
overall behavior and reactivities (rats; 1 and 4 mg/kg): no distinct modification of the behavior and reactivities compared with the control animals
overall behavior and reactivities (rats; 16 and 64 mg/kg): mydriasis
period of immobility (mice [1]; hydrochloride): no modification of the period of immobility due to despair; also recorded: no effect on the immobility due to despair
action on hypothermia induced by apomorphine [2]: antagonism of the hypothermia induced by apomorphine, reserpine and oxotremorine
action on hypothermia induced by oxotremorine [3]: antagonism of the hypothermia induced by apomorphine, reserpine and oxotremorine
action on hypothermia induced by reserpine [4]: antagonism of the hypothermia induced by apomorphine, reserpine and oxotremorine
action on ptosis induced by reserpine [4]: antagonism of the ptosis induced by reserpine
resumption in the motor activity of mice accustomed to their enclosure (mice [5]): a resumption in the motor activity of mice accustomed to their enclosure
motor recovery after acute hypobaric hypoxia (mice [6]): at high doses, CRL 41 337 paradoxically causes an improvement in the motor recovery of mice after acute hypobaric hypoxia
LD0 (maximum non-lethal dose) (male mice; intraperitoneal): greater than 256 mg/kg
LD60 (male mice; intraperitoneal): about 500 mg/kg
LD100 (minimum dose lethal to all the animals) (male mice; intraperitoneal): less than or equal to 1000 mg/kg
lethal effects of electric shock (mice [7]): at a high dose, CRL 41 337 causes aggravation of the lethal effects of electric shock
intergroup aggressiveness (number of fights) (mice [8]): a decrease in the intergroup aggressiveness
spontaneous motor activity (mice [9]): a decrease in the motor activity
overall behavior and reactivities (mice [10]; 128 mg/kg): moderate hypothermia (-1.6 °C one hour after administration) for 3 h
moderate hypothermia (mice [10]; 128 mg/kg, one hour after administration): -1.6 °C
overall behavior and reactivities (mice [10]; 2 to 32 mg/kg): no distinct modification of the behavior and reactivities compared with the control animals
antidepressant effects ([11]; i.p.): antidepressant effects
peripheral anticholinergic activity ([11]; i.p.): no anticholinergic action
stimulant effects ([11]; i.p.): no stimulation of the spontaneous motor activity
peripheral α-adrenergic stimulant effects ([11]; i.p., hydrochloride): peripheral α-adrenergic stimulant effects; also recorded: mydriasis in rats
sedative effects ([11]; i.p., hydrochloride): sedative effects; also recorded: hypothermia
overall neuropsychopharmacological profile ([11]; hydrochloride): acts principally as an antidepressant; also recorded: resemble those of β-adrenergic stimulants

CC(Cc1ccc(O)cc1)NCC(O)c1cc(O)cc(O)c1 (stereo not drawn) [fenoterol, reference compound]
head twitches [12, 15]: moderate potentiation of the head twitches
trembling ([12]; 5-HTP + MAOI): distinct potentiation of the trembling

CNCCCN1c2ccccc2CCc2ccccc21 [desipramine, reference compound]
all the effects of 5-HTP [12]: potentiate all the effects of 5-HTP in the presence of an MAOI

CC(C)(C)NCC(O)c1cc(O)cc(O)c1 (stereo not drawn) [terbutaline, reference compound]
head twitches [12, 15]: no modification of the trembling or head twitches
trembling ([12]; 5-HTP + MAOI): no modification of the trembling or head twitches

CC(NCCc1ccc(O)cc1)C(O)c1ccc(O)cc1 (stereo not drawn) [ritodrine, reference compound]
head twitches [12, 15]: no modification of the head twitches
trembling ([12]; 5-HTP + MAOI): moderate potentiation of the trembling

CC1=NCC(c2ccccc2)CN1.Cl (stereo not drawn) [CRL 41 352, 2-methyl-5-phenyl-1,4,5,6-tetrahydropyrimidine hydrochloride]
overall behavior and reactivities (rats; 4 mg/kg and 16 mg/kg): mydriasis
overall behavior and reactivities (rats; 16 mg/kg): a decrease in the breathing rate
period of immobility (mice [1]): no decrease in the period of immobility due to "despair"
action on hypothermia induced by apomorphine [2]: significant antagonism (as from the lowest doses used) of the hypothermia induced by apomorphine and oxotremorine
action on hypothermia induced by oxotremorine [3]: significant antagonism (as from the lowest doses used) of the hypothermia induced by apomorphine and oxotremorine
analogy with β-adrenergic stimulants in the 5-HTP procedure ([12]; 5-HTP + MAOI): effects analogous to those of isoprenaline
intensity of potentiation of 5-HTP effects ([12]; higher doses, 5-HTP + MAOI, male mice): the potentiation being very intense at the doses of 8 to 32 mg/kg
head twitches [12, 15]: distinctly potentiate the partial trembling and the head twitches
partial trembling [12, 15]: distinctly potentiate the partial trembling and the head twitches
action on hypothermia induced by reserpine [4]: more moderate antagonism of the hypothermia induced by reserpine
resumption in the motor activity of mice accustomed to their enclosure (mice [5]): a resumption in the motor activity of mice accustomed to their enclosure
effectiveness in ambulant patients with depressive symptomatology ([13]; asthenia, slowing down or both psycho-intellectual and motor inhibition): particularly effective
results in human therapy (depression) ([13]; daily oral administration to adults): excellent results
toxic signs in the animals treated (male mice; 64 mg/kg i.p.): all the animals treated exhibit sedation and a decrease in the breathing rate
LD0 (maximum non-lethal dose) (male mice; intraperitoneal): greater than 64 mg/kg
LD30 (male mice; intraperitoneal): ~128 mg/kg
intergroup aggressiveness (number of fights) (mice [8]): a decrease in the number of fights in the intergroup aggressiveness test
teratogenic effects (pregnant rabbits): devoid of harmful teratogenic effects on pregnant rabbits
minimal effective dose [14]: ≥ 0.5 mg/kg
overall behavior and reactivities (mice [10]; 0.5 mg/kg, 2 mg/kg, 8 mg/kg and 32 mg/kg): no distinct modification of the behavior and reactivities
antidepressant effects ([11]; i.p.): antidepressant effects which are very distinct
sedative effects ([11]; i.p.): sedative effects appearing at very high doses
stimulant effects ([11]; i.p.): a stimulant effect which is very moderate, appearing at high doses
overall neuropsychopharmacological profile [11]: principally an antidepressant having a very slight stimulant component and a very weak sedative component

CC(C)NCC(O)c1cc(O)cc(O)c1 (stereo not drawn) [ociprenaline, reference compound]
head twitches [12, 15]: no modification of the trembling or head twitches
trembling ([12]; 5-HTP + MAOI): no modification of the trembling or head twitches

CC(C)NCC(O)c1ccc(O)c(O)c1 (stereo not drawn) [isoprenaline, reference compound]
head twitches [12, 15]: distinct potentiation of the trembling and head twitches
trembling ([12]; 5-HTP + MAOI): distinct potentiation of the trembling and head twitches

CC(N)Cc1ccccc1 (stereo not drawn) [amphetamine, reference compound]
all the effects of 5-HTP [12]: potentiate all the effects of 5-HTP in the presence of an MAOI

CCNC(C)Cc1cccc(C(F)(F)F)c1 (stereo not drawn) [fenfluramine, reference compound]
all the effects of 5-HTP [12]: potentiate all the effects of 5-HTP in the presence of an MAOI

CC(C)(C)NCC(O)c1ccc(O)c(CO)c1 (stereo not drawn) [salbutamol, reference compound]
head twitches [12, 15]: no modification of the head twitches
trembling ([12]; 5-HTP + MAOI): moderate potentiation of the trembling
